Data from patent publication US20250270222A1, “AP2 ASSOCIATED KINASE 1 INHIBITORS AND USES THEREOF” (Satellos Bioscience Inc., priority 2023, published 2025).

Tests used:
[1] = molecular target: AAK1 (amino acids T27-A365) (Homo sapiens (Human), UniProt Q2M2I8); assay: AAK1 pSENs assay; type: biochemical; details: ratio of AAK1 pSENs activity to GAK pSENs activity
Procedure: (§1) The recombinant proteins were independently expressed in Esherichia coli BL21(DE3) cells cultured in Luria-Bertani (LB) medium until OD600 reached 0.6-0.8, then cooled to 15° C., and supplemented with 0.5 mM isopropyl 1-thio-D-galactopyranoside (IPTG) induce protein expression 16 h. Cells were harvested and resuspended in lysis buffer (50 mM HEPES pH 7.5, 500 mM NaCl, 5 mM imidazole, 5% glycerol, 0.5 mM Tris (2-carboxyethyl) phosphine (TCEP), cOmplete Protease Inhibitor Tablet (Roche)) and lysed by microfluidics high pressure homogenizer (UH-06, Union-Biotech). Proteins were purified using Ni-Affinity chromatography (His FF column, Bestchrom) and eluted stepwise in binding buffer with 20-300 mM imidazole. Removal of the hexahistidine tag was performed at 4° C. overnight using recombinant TEV protease and reacted with BirA to obtain the corresponding biotinylated-AAK1. BIKE or GAK proteins. Further separated in the reverse Strep column (Strep-Tactin® XT, IBA). The Biotin elution sample was collected containing untagged biotinylated protein was then purified by Ion-exchange chromatography (Mono Q 10/100 GL, Cytiva) and Size-exclusion chromatography (HiLoad 16/600 Superdex 200 pg, Cytiva). The pure protein was stored in a storage buffer 50 mM HEPES (pH 7.5), 300 mM NaCl, 5% glycerol at −80° C. Protein were characterized by SDS-PAGE. LC-MS and aSEC.
This example describes one illustrative method for determining the IC50 of the compounds of the present invention against AAK1 (amino acids T27-A365). AAK1 protein was dissolved at 20 nM in 1× enzyme solution (50 mM HEPES pH7.5, 10 mM MgCl2, 1 mM DTT, 1% glycerol, 0.5 mM EGTA, 0.01% Briji35, 0.02% BSA) and 12.5 ul was incubated with 250 nl DMSO or 250 nl compound in DMSO at 25° C. for 15 min. The reaction was started by addition of 12.5 ul of 30 uM AQT0759 (Assayquant, CSKS-AQT0759B) and 70 uM ATP which were diluted in 1× substrate dilution buffer (50 mM HEPES pH7.5, 10 mM MgCl2, 1 mM DTT, 1% glycerol, 0.5 mM EGTA, 0.01% Briji35).

[2] = molecular target: GAK (amino acids Q25-N335) (Homo sapiens (Human), UniProt O14976); assay: GAK pSENs assay; type: biochemical
Procedure: as §1
This example describes one illustrative method for determining the IC50 of the compounds of the present invention against GAK (amino acids Q25-N335).

GAK (amino acids Q25-N335), sequence (O14976 25-335): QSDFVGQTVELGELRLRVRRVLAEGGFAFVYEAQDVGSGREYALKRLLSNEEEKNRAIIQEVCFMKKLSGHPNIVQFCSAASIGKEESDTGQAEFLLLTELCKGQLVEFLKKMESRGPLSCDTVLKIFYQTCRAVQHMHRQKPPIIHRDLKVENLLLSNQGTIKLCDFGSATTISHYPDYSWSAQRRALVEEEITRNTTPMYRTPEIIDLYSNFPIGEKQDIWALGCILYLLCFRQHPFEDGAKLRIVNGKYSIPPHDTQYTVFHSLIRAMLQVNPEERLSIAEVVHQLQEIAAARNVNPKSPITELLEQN
AAK1 (amino acids T27-A365), sequence (Q2M2I8 27-365): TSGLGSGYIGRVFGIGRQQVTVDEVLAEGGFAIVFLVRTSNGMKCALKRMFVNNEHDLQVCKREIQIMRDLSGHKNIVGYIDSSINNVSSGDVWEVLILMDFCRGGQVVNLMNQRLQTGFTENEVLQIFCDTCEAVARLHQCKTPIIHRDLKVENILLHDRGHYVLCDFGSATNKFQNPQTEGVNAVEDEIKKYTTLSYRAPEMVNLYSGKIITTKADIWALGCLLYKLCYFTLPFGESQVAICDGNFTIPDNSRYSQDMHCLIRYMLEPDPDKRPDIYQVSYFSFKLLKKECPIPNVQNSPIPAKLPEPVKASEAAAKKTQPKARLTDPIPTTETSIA

Structure (SMILES)	AAK1:GAK pSENs Selectivity [1]	IC50 [2]
COc1ncccc1-c1cnn2ccc(N3CCN(C(=O)OC4CNC(=O)C4)CC3)nc12 (stereo not drawn) [Compound I-6, (5-Oxopyrrolidin-3-yl) 4-[3-(2-methoxy-3-pyridyl)pyrazolo[1,5-a]pyrimidin-5-yl]piperazine-1-carboxylate]	A (A: ≤0.015)	> 1500 nM
CN(CCNc1ccn2ncc(-c3cccnc3OC3CN(C(=O)OC(C)(C)C)C3)c2n1)C(=O)OC(C)(C)C [Compound I-62, Tert-butyl 3-[[3-[5-[2-[tert-butoxycarbonyl(methyl)amino]ethylamino]pyrazolo[1,5-a]pyrimidin-3-yl]-2-pyridyl]oxy]azetidine-1-carboxylate]	A (A: ≤0.015)	> 1500 nM
CC(C)Oc1ncccc1-c1cnn2ccc(N3CCN(C(=O)OC4(C)COC4)CC3)nc12 [Compound I-1, (3-methyloxetan-3-yl)-4-[3-(2-isopropoxy-3-pyridyl)pyrazolo[1,5-a]pyrimidin-5-yl]piperazine-1-carboxylate]	A (A: ≤0.015)	> 1500 nM
CN(CCNc1ccn2ncc(-c3cccnc3OC3CC3)c2n1)C(=O)O[C@@H]1CNC(=O)C1 [Compound I-60]	C (C: 0.076-0.15)	> 1500 nM
CC(=O)N1CC(Oc2ncccc2-c2cnn3ccc(N4CCN(C(=O)O[C@@H]5CNC(=O)C5)CC4)nc23)C1 [Compound I-59, (S)-5-oxopyrrolidin-3-yl 4-(3-(2-((1-acetylazetidin-3-yl)oxy)pyridin-3-yl)pyrazolo[1,5-a]pyrimidin-5-yl)piperazine-1-carboxylate]	A (A: ≤0.015)	> 1500 nM
COCCN1C[C@@H](OC(=O)N2CCN(c3ccn4ncc(-c5cccnc5OC5CC5)c4n3)CC2)CC1=O [Compound I-115, [(3S)-1-(2-methoxyethyl)-5-oxo-pyrrolidin-3-yl]-4-[3-[2-(cyclopropoxy)-3pyridyl]pyrazolo[1,5-a]pyrimidin-5-yl]piperazine-1-carboxylate]	A (A: ≤0.015)	> 1500 nM
[2H]C1([2H])N(C(=O)O[C@@H]2CNC(=O)C2)C([2H])([2H])C([2H])([2H])N(c2ccn3ncc(-c4cccnc4OC4CC4)c3n2)C1([2H])[2H] [Compound I-72, [(3S)-5-oxopyrrolidin-3-yl]4-[3-[2-(cyclopropoxy)-3-pyridyl]pyrazolo[1,5-a]pyrimidin-5-yl]-2,2,3,3,5,5,6,6-octadeuterio-piperazine-1-carboxylate]	A (A: ≤0.015)	> 1500 nM
O=C1C[C@H](OC(=O)N2CCN(c3ccn4ncc(-c5cccnc5OC5CC5)c4n3)CC2)CN1 [Compound I-11, [(3S)-5-Oxopyrrolidin-3-yl]-4-[3-[2-(cyclopropoxy)-3-pyridyl]pyrazolo[1,5-a]pyrimidin-5-yl]piperazine-1-carboxylate hydrochloric acid]	A (A: ≤0.015)	> 1500 nM
CNCCN1C[C@@H](OC(=O)N2CCN(c3ccn4ncc(-c5cccnc5OC5CC5)c4n3)CC2)CC1=O [Compound I-36, (S)-1-(2-(methylamino)ethyl)-5-(oxopyrrolidin-3-yl)-4-(3-(2-cyclopropoxypyridin-3-yl)pyrazolo[1,5-a]pyrimidin-5-yl)piperazine-1-carboxylate]	A (A: ≤0.015)	> 1500 nM
[2H]C([2H])([2H])N1C[C@@H](OC(=O)N2CCN(c3ccn4ncc(-c5cccnc5OC5CC5)c4n3)CC2)CC1=O [Compound I-113, [(3S)-5-oxo-1-(trideuteriomethyl)pyrrolidin-3-yl]4-[3-[2-(cyclopropoxy)-3-pyridyl]pyrazolo[1,5-a]pyrimidin-5-yl]piperazine-1-carboxylate]	A (A: ≤0.015)	> 1500 nM
CN(CCNc1ccn2ncc(-c3cccnc3OC3CC3)c2n1)C(=O)OC(C)(C)C [Compound I-12, tert-butyl N-[2-[[3-[2-(Cyclopropoxy)-3-pyridyl]pyrazolo[1,5-a]pyrimidin-5-yl]amino]ethyl]-N-methyl-carbamate]	A (A: ≤0.015)	
CN(CCN1C[C@@H](OC(=O)N2CCN(c3ccn4ncc(-c5cccnc5OC5CC5)c4n3)CC2)CC1=O)C(=O)OC(C)(C)C [Compound I-35, (S)-1-(2-((tert-butoxycarbonyl)(methyl)amino)ethyl)-5-oxopyrrolidin-3-yl-4-(3-(2-cyclopropoxypyridin-3-yl)pyrazolo[1,5-a]pyrimidin-5-yl)piperazine-1-carboxylate]	B (B: 0.016-0.075)	
O=C1C[C@H](OC(=O)N2CCN(c3ccn4ncc(-c5cccnc5OC5CC5)c4n3)CC2)CN1CCOCc1ccccc1 [Compound I-37, [(3S)-1-(2-benzyloxyethyl)-5-oxo-pyrrolidin-3-yl]-4-[3-[2-(cyclopropoxy)-3-pyridyl]pyrazolo[1,5-a]pyrimidin-5-yl]piperazine-1-carboxylate]	A (A: ≤0.015)	
CN1C[C@H](OC(=O)N2CCN(c3ccn4ncc(-c5cccnc5OC5CC5)c4n3)CC2)CC1=O [Compound I-94]	A (A: ≤0.015)	
[2H]C([2H])([2H])N1C[C@@H](OC(=O)N2CCN(c3nc4c(-c5cc(OC)cnc5OC5CC5)cnn4cc3F)CC2)CC1=O [Compound I-117, [(3S)-5-oxo-1-(trideuteriomethyl)pyrrolidin-3-yl]4-[3-[2-(cyclopropoxy)-5-methoxy-3-pyridyl]-6-fluoro-pyrazolo[1,5-a]pyrimidin-5-yl]piperazine-1-carboxylate]	A (A: ≤0.015)	
CC1(OC(=O)N2CCN(c3ccn4ncc(-c5cccc(C(N)=O)c5)c4n3)CC2)COC1 [Compound I-4, (3-methyloxetan-3-yl)-4-[3-(3-carbamoylphenyl)pyrazolo[1,5-a]pyrimidin-5-yl]piperazine-1-carboxylate]	C (C: 0.076-0.15)	
[2H]C1([2H])N(C(=O)O[C@H]2CC(=O)N(C)C2)C([2H])([2H])C([2H])([2H])N(c2ccn3ncc(-c4cccnc4OC4CC4)c3n2)C1([2H])[2H] [Compound I-73, [(3S)-1-methyl-5-oxo-pyrrolidin-3-yl]-4-[3-[2-(cyclopropoxy)-3-pyridyl]pyrazolo[1,5-a]pyrimidin-5-yl]-2,2,3,3,5,5,6,6-octadeuterio-piperazine-1-carboxylate]		> 1500 nM
C#C[C@@]1(OC(=O)N2CCN(c3ccn4ncc(-c5cccnc5OC5CC5)c4n3)CC2)CCNC1 [Compound I-16, [(3S)-3-Ethynylpyrrolidin-3-yl]-4-[3-[2-(cyclopropoxy)-3-pyridyl]pyrazolo[1,5-a]pyrimidin-5-yl]piperazine-1-carboxylate]	B (B: 0.016-0.075)	
CN1C[C@@H](OC(=O)N2CCN(c3ccn4ncc(Cl)c4n3)CC2)CC1=O [Compound I-96, [(3S)-1-methyl-5-oxo-pyrrolidin-3-yl]-4-(3-chloropyrazolo[1,5-a]pyrimidin-5-yl)piperazine-1-carboxylate]	E (E: >1.00)	
CC(C)Oc1ncccc1-c1cnn2ccc(N3CCN(C(=O)O[C@]4(C)CCNC4)CC3)nc12 [Compound I-22, [(3R)-3-methylpyrrolidin-3-yl]4-[3-(2-isopropoxy-3-pyridyl)pyrazolo[1,5-a]pyrimidin-5-yl]piperazine-1-carboxylate]	B (B: 0.016-0.075)	
